Assays:
rat = test: self-administration of ethanol by a rat (ethanol intake, water intake, ethanol preference); assay type: in vivo
Excerpt: The graphs show ethanol intake, water intake, and ethanol preference.
FIG. 2 illustrates the effect of administration of the NK1 receptor antagonist LY303870 on self-administration of alcohol by a rat.
Without being bound to a particular theory, it is believed that this effect may be due to failure of WIN 51,708 to cross the blood-brain barrier.

rats = test: loss of righting reflex (measure of intoxication) in rats administered ethanol; assay type: in vivo, rat; conditions: rats given 3 g/kg of ethanol; vs vehicle-treated animals
Excerpt: FIG. 1 illustrates the effect of an NK1 receptor antagonist (LY303870) on the loss of righting reflex in rats administrated ethanol at 3 and 4 g/kg. *P<0.05 vs vehicle-treated animals. n=9-10 per group.

SMILES	ethanol consumption (rat)	ethanol preference (ethanol as compared to water) (rat)	loss of righting reflex (time the test animals were "drunk") (rats)	self-administration of ethanol (rat; 2.5 mg/kg or greater)
C#C[C@]1(O)CC[C@H]2[C@@H]3CC[C@H]4Cc5nc6nc7ccccc7n6cc5C[C@]4(C)[C@H]3CC[C@@]21C [WIN 51,708]	did not have a significant effect	did not alter preference	–	–
COc1ccccc1CN(C[C@@H](Cc1c[nH]c2ccccc12)NC(=O)CN1CCC(N2CCCCC2)CC1)C(C)=O [LY303870]	–	reduced preference for ethanol as compared to water	reduced the time the test animals were “drunk”	significant reduction in self-administration of ethanol
